# From patent publication US7824853B2, “Complex comprising at least two biospecific elements separated by a nucleic acid linker e.g. for identification of drug delivery candidates combinatorial library of such complexes” (Avaris AB, priority 2002, dated 2010)
# System: peripheral blood mononuclear cells, population with the characteristics of monocytes
# Test: Monocyte binding assay (FACS, binding and uptake of fluorescent complexes)
# Format: cell-based
# Conditions: monocytic population; incubated one hour at +37° C., then trypsinisation; 6-FAM labelled 48-mer oligo
# Description: Oligonucleotides (48-mers) with recognition sites for 2 different peptide-nucleic-acid sequences and with a fluorescent label were designed and manufactured. Each binding site corresponds to 15 nucleotides. The 48-mer oligos contain in the 5′ end the fluorescent label, 6-FAM, followed by three thymidine residues as spacer. There is a single central target site (GGAAGGGCCGAGCGC, Seq. Id. No. 2) surrounded by two identical adjacent target sites (CAATCGGAACGGATC, Seq. Id. No. 1).
# Peptide-nucleic-acid-linker3-peptide (=ligand) fusions were generated as described before (Brandén L J, Mohamed A J, Smith C I E. A peptide nucleic acid-nuclear localisation signal fusion that mediates nuclear transport of DNA. Nature Biotechnol 17: 784-787, 1999). […]
# Peptide-nucleic-acid-linker3-peptide (=ligand) fusions were hybridised to oligonucleotides in order to generate the novel biomolecular complexes. […] Following the incubation cells were analysed in a fluorescent activated cell sorter (FACS SCAN, Becton Dickinson, Mountain View, Calif.).
sequence,measurement,value
TAT (FE2): PNA-linker3-HIV TAT peptide (grkkrrqrrrppqc) fusion hybridised to central target site Seq. Id. No. 2 of the 48-mer oligo,Percentage of fluorescent cells,0.93%
